The values below come from US12172975B2, “1H-indazole carboxamides as receptor-interacting protein kinase 1 inhibitors (RIPK1)” (BRISTOL-MYERS SQUIBB COMPANY, priority 2018, dated 2024).

One assay concerns MLKL phosphorylation in HT29-L23 human colorectal adenocarcinoma cells. The experiment in a line: MLKL Phosphorylation High-Content Assay. It is filed as cell-based. The following applies: Homo sapiens, 6 h, necroptosis induced with TNFα, SMAC mimetic and Z-VAD, read-out: pMLKL (IC50). On the procedure: MLKL Phosphorylation High-Content Assay
HT29-L23 human colorectal adenocarcinoma cells were maintained in RPMI 1640 medium containing 10% heat-inactivated FBS, 1% Penicillin-Streptomycin and 10 mM HEPES. Cells were seeded at 2,000 cells/well in 384 well tissue culture-treated microplates (Greiner #781090-3B) and incubated at 37° C. (5% CO2/95% O2) for 2 d. […] (5% CO2/95% O2). Necroptopsis was induced using a mixture of human TNFα (35 ng/mL) (Peprotech #300-01A), SMAC mimetic (from US 2015/0322111 A1) (700 nM) and Z-VAD ([…]) (BD pharmingen #51-6936). Following 6 h incubation at 37° C. (5% CO2/95% O2), the cells were fixed with 4% formaldehyde (ACROS 11969-0010) for 15 min at rt, then permeabilized with phosphate buffered saline (PBS) containing 0.2% Triton-X-100 for 10 min. MLKL phosphorylation was detected using anti-MLKL (phospho S358) antibody (Abeam #ab 187091) (1:1000 dilution in Blocking Buffer [PBS supplemented with 0.1% BSA]) with ON incubation at 4° C. After washing three times in PBS, goat anti-rabbit Alexa-488 (1:1000 dilution) (Life Technologies, A11008) and Hoechst 33342 (Life Technologies, H3570) (1:2000 dilution) in Blocking Buffer were added for 1 h at rt.
Following another three cycles of washes in PBS, the microplates were sealed, and cellular images were acquired in the Cellomics ArrayScan VTI high-content imager equipped with an X1 camera. Fluorescent images were taken using a 10× objective and the 386-23 BGRFRN_BGRFRN and 485-20 BGRFRN_BGRFRN filter sets, for nuclei and MLKL phosphorylation, respectively. The image sets were analyzed using the Compartmental Analysis Bioapplication software (Cellomics). The level of MLKL phosphorylation was quantified as MEAN_CircRingAvglntenRatio. The maximal inhibitory response was defined by the activity induced by Neels (CAS #: 852391-15-2, 6.25 μM). […] The data were fitted using the 4-parameter logistic equation to calculate the IC50 and Ymax values.
Take `CNC(=O)c1n[nH]c2cc(-c3cnc(OC)c(C(=O)NCCS(=O)(=O)Nc4ccccc4)c3)ccc12` [Example 47, 6-(6-methoxy-5-{[2-(phenyl-sulfamoyl)ethyl]carbamoyl}-pyridin-3-yl)-N-methyl-1H-indazole-3-carboxamide]: the IC50 was 38 nM.
With `CNC(=O)c1n[nH]c2cc(-c3cnc(OC)c(C(=O)NCc4ccccc4N4CCC(CO)CC4)c3)ccc12` [Example 57, 6-{5-[({2-[4-(hydroxymethyl)-piperidin-1-yl]phenyl}methyl)-carbamoyl]-6-methoxypyridin-3-yl}-N-methyl-1H-indazole-3-carboxamide], the IC50 came to 110 nM.
The same measure, in the same setting: the same measure for `CNC(=O)c1n[nH]c2cc(-c3cnc(OC)c(C(=O)NCc4ccccc4OC)c3)ccc12` [Example 58, 6-(6-methoxy-5-{[(2-methoxy-phenyl)methyl]carbamoyl}-pyridin-3-yl)-N-methyl-1H-indazole-3-carboxamide]: 5.6 nM; for `CNC(=O)c1n[nH]c2cc(-c3cnc(OC)c(C(=O)NCCCOC(C)(C)C)c3)ccc12` [Example 60, 6-(5-{[3-(tert-butoxy)propyl]-carbamoyl}-6-methoxypyridin-3-yl)-N-methyl-1H-indazole-3-carboxamide]: 16 nM; for `CNC(=O)c1n[nH]c2cc(-c3cnc(OC)c(C(=O)NCCCOC4CCCCO4)c3)ccc12` (centres unmarked) [Example 61, 6-(6-methoxy-5-{[3-(oxan-2-yloxy)propyl]carbamoyl}-pyridin-3-yl)-N-methyl-1H-indazole-3-carboxamide]: 28 nM.
For the molecule `CNC(=O)c1n[nH]c2cc(-c3cnc(OC)c(C(=O)N[C@H]4CC[C@@H](c5ccccc5)C4)c3)ccc12` [Example 67, 6-(6-methoxy-5-{[(1S,3R)-3-phenylcyclopentyl]carbamoyl}-pyridin-3-yl)-N-methyl-1H-indazole-3-carboxamide], the IC50 turned out to be 39 nM.
As for `CNC(=O)c1[nH]nc2cc(-c3cnc(OC)c(C(=O)NC[C@@H]4C[C@H]4c4ccc(F)cc4)c3)ccc12` [Example 70, 6-[5-({[(1R,2R)-2-(4-fluoro-phenyl)cyclopropyl]methyl}-carbamoyl)-6-methoxypyridin-3-yl]-N-methyl-2H-indazole-3-carboxamide], the IC50 was determined as 36 nM.
The same measure, in the same setting: for `CCc1ccccc1CNC(=O)c1cc(-c2ccc3c(C(=O)NC)n[nH]c3c2)cnc1OC` [Example 82, 6-(5-{[(2-ethylphenyl)methyl]-carbamoyl}-6-methoxy-pyridin-3-yl)-N-methyl-1H-indazole-3-carboxamide] the value was 41 nM; for `CNC(=O)c1n[nH]c2cc(-c3cnc(OC)c(C(=O)NCCCC(=O)OC(C)(C)C)c3)ccc12` [Example 135, tert-butyl 4-({2-methoxy-5-[3-(methylcarbamoyl)-1H-indazol-6-yl]pyridin-3-yl}formamido)-butanoate], 200 nM.
Same read-out and setting: for `CNC(=O)c1n[nH]c2cc(-c3cnc(OC)c(C(=O)N[C@H]4CCN(C(=O)OC(C)(C)C)C4)c3)ccc12` [Example 136, tert-butyl (3S)-3-{2-methoxy-5-[3-(methylcarbamoyl)-1H-indazol-6-yl]pyridine-3-amido}-pyrrolidine-1-carboxylate] the value was 480 nM; for `CNC(=O)c1n[nH]c2cc(-c3cnc(OC)c(C(=O)N[C@@H](C)CC(=O)OC(C)(C)C)c3)ccc12` [Example 139, tert-butyl (3S)-3-({2-methoxy-5-[3-(methylcarbamoyl)-1H-indazol-6-yl]pyridin-3-yl}-formamido)butanoate], 28 nM; for `CNC(=O)c1n[nH]c2cc(-c3cnc(OC)c(C(=O)N[C@H](C)CC(=O)OC(C)(C)C)c3)ccc12` [Example 141, tert-butyl (3R)-3-({2-methoxy-5-[3-(methylcarbamoyl)-1H-indazol-6-yl]pyridin-3-yl}-formamido)butanoate], 41 nM.
Still for that read-out and setting: the same measure for `CNC(=O)c1n[nH]c2cc(-c3cnc(OC)c(C(=O)NCCCC(=O)N(CC4CC4)C4CC4)c3)ccc12` [Example 142, 6-[5-({3-[cyclopropyl(cyclo-propylmethyl)carbamoyl]-propyl}carbamoyl)-6-meth-oxypyridin-3-yl]-N-methyl-1H-indazole-3-carboxamide]: 120 nM.
Regarding `CNC(=O)c1n[nH]c2cc(-c3cnc(OC)c(C(=O)NCC(C)(C)C(=O)OC(C)(C)C)c3)cc(F)c12` [Example 144, tert-butyl 3-({5-[4-fluoro-3-(methylcarbamoyl)-1H-indazol-6-yl]-2-methoxy-pyridin-3-yl}formamido)-2,2-dimethylpropanoate], the IC50 worked out at 100 nM.
On the same count and under the same terms, for `CNC(=O)c1n[nH]c2cc(-c3cnc(OC)c(C(=O)NC(C)c4cccc(OC(F)(F)F)c4)c3)cc(F)c12` (centres unmarked) [Example 147, 4-fluoro-6-[6-methoxy-5-({1-[3-(trifluoromethoxy)-phenyl]ethyl}carbamoyl)-pyridin-3-yl]-N-methyl-1H-indazole-3-carboxamide] the value was 110 nM; for `CNC(=O)c1n[nH]c2cc(-c3cc(C(=O)NCc4cc(OC(F)(F)F)ccc4F)c(OC)nc3C)ccc12` [Example 161, 6-[5-({[2-fluoro-5-(tri-fluoromethoxy)phenyl]-methyl}carbamoyl)-6-methoxy-2-methylpyridin-3-yl]-N-methyl-1H-indazole-3-carboxamide], 74 nM; for `COc1ncc(-c2ccc3c(C(=O)N[C@H](C)C4CC4)n[nH]c3c2)cc1C(=O)NCc1ccccc1OC(F)(F)F` [Example 171, N-[(1R)-1-cyclopropylethyl]-6-[6-methoxy-5-({[2-(trifluoro-methoxy)phenyl]methyl}-carbamoyl)pyridin-3-yl]-1H-indazole-3-carboxamide], 120 nM.
Same read-out and setting: for `COc1ncc(-c2ccc3c(C(=O)NC4CC4)n[nH]c3c2)cc1C(=O)NCc1ccccc1OC(F)(F)F` [Example 174, N-cyclopropyl-6-[6-methoxy-5-({[2-(trifluoromethoxy)phenyl]-methyl}carbamoyl)pyridin-3-yl]-1H-indazole-3-carboxamide] the value was 14 nM.
The same measure, in the same setting: for `COc1ncc(-c2ccc3c(C(=O)NCC(F)(F)F)n[nH]c3c2)cc1C(=O)NCc1ccccc1OC(F)(F)F` [Example 178] the value was 120 nM.
Take `COc1ncc(-c2ccc3c(C(=O)NC(C)C)n[nH]c3c2)cc1C(=O)NCc1ccccc1OC(F)(F)F` [Example 179, 6-[6-methoxy-5-({[2-(trifluoro-methoxy)phenyl]methyl}carbam-oyl)pyridin-3-yl]-N-(propan-2-yl)-1H-indazole-3-carboxamide]: the IC50 is 73 nM.
The same measure, in the same setting: for `[2H]C([2H])([2H])Oc1ncc(-c2ccc3c(C(=O)NC4CC4)n[nH]c3c2)cc1C(=O)NC(C)c1cccc(OC(F)(F)F)c1` (centres unmarked) [Example 197, N-cyclopropyl-6-[6-(deutero)-methoxy-5-({1-[3-(trifluorometh-oxy)phenyl]ethyl}carbamoyl)-pyridin-3-yl]-1H-indazole-3-carboxamide] the value was 52 nM.
Take `[2H]C([2H])([2H])Oc1ncc(-c2ccc3c(C(=O)NC4CC4)n[nH]c3c2)cc1C(=O)N[C@@H](C)c1cccc(C(F)(F)F)c1` [Example 211, N-cyclopropyl-6-[6-(deutero)-methoxy-5-{[(1S)-1-[3-(trifluoro-methyl)phenyl]ethyl]carbamoyl}-pyridin-3-yl]-1H-indazole-3-carboxamide]: the IC50 came out at 27 nM.
The same measure, in the same setting: for `[2H]C([2H])([2H])NC(=O)c1n[nH]c2cc(-c3cnc(OC([2H])([2H])[2H])c(C(=O)N[C@@H](C)c4cc(C(F)(F)F)ccc4F)c3)ccc12` [Example 213, 6-(5-{[(1S)-1-[2-fluoro-5-(trifluoro-methyl)phenyl]ethyl]carbamoyl}-6-(deutero)methoxypyridin-3-yl)-N-(deutero)methyl-1H-indazole-3-carboxamide] the value was 21 nM.

Staying with this assay, now noted: necroptosis induced with TNFα, SMAC mimetic and Z-VAD, 6 h, read-out: pMLKL (IC50).
With `CNC(=O)c1n[nH]c2cc(-c3cnc(OC)c(C(=O)NCC4CC4c4cccc(F)c4)c3)ccc12` (centres unmarked) [Example 48, 6-[5-({[2-(3-fluorophenyl)-cyclopropyl]methyl}carbamoyl)-6-methoxypyridin-3-yl]-N-methyl-1H-indazole-3-carbox-amide], the IC50 stood at 176 nM.
Take `CNC(=O)c1n[nH]c2cc(-c3cnc(OC)c(C(=O)NCC4CC4c4cccc(F)c4)c3)ccc12` (centres unmarked) [Example 49, 6-[5-({[2-(3-fluorophenyl)-cyclopropyl]methyl}carbamoyl)-6-methoxypyridin-3-yl]-N-methyl-1H-indazole-3-carbox-amide]: the IC50 was 21 nM.
As to `CNC(=O)c1n[nH]c2cc(-c3cnc(OC)c(C(=O)NCc4cc(F)cc(F)c4OC)c3)ccc12` [Example 89, 6-(5-{[(3,5-difluoro-2-methoxy-phenyl)methyl]carbamoyl}-6-methoxy-pyridin-3-yl)-N-methyl-1H-indazole-3-carbox-amide], the IC50 was found to be 85 nM.
